From ChEMBL document CHEMBL1201862, “PubChem BioAssay data set” (2004)
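Where inhibition never reached the appropriate level, the endpoint shown equals the highest concentration tested. Otherwise, values were interpolated linearly from a five-concentration, 48-hour dose response in 96-well plates. Here, GI50 denotes the concentration required for 50% inhibition of growth.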 Active and inactive are the calls of the source. Rule as the data show it: active = GI50 up to about 1.1 µM and inactive = higher.

Columns and labels:
Assay in all cases: NCI tumour cell line growth inhibition, 48 h
A498 = system: A498
ACHN = system: ACHN
CCRF-CEM = system: CCRF-CEM
DMS-114 = system: DMS-114
DMS-273 = system: DMS-273
EKVX = system: EKVX
HCT-116 = system: HCT-116
HL-60 = system: HL-60
HOP-62 = system: HOP-62
HOP-92 = system: HOP-92
HT-29 = system: HT-29
IGROV-1 = system: IGROV-1
K562 = system: K562
KM-20L2 = system: KM-20L2
KM12 = system: KM12
M14 = system: M14
M19-MEL = system: M19-MEL
MOLT-4 = system: MOLT-4
NCI-H23 = system: NCI-H23
NCI-H460 = system: NCI-H460
NCI-H522 = system: NCI-H522
OVCAR-5 = system: OVCAR-5
OVCAR-8 = system: OVCAR-8
RXF 393 = system: RXF 393
SF-295 = system: SF-295
SK-MEL-28 = system: SK-MEL-28
SK-OV-3 = system: SK-OV-3
SNB-19 = system: SNB-19
SNB-78 = system: SNB-78
SR = system: SR
TK-10 = system: TK-10
U-251 = system: U-251
UACC-257 = system: UACC-257
UACC-62 = system: UACC-62
UO-31 = system: UO-31

Measured: GI50

CCCC(=O)OC1C(C2COC(C)(C)O2)OC2OC(C)(C)OC21 (stereo not given)
inactive: A498 > 100 µM | ACHN > 100 µM | CCRF-CEM > 100 µM | DMS-114 > 100 µM | DMS-273 > 100 µM | EKVX > 100 µM | HCT-116 > 100 µM | HL-60 > 100 µM | HOP-62 > 100 µM | HOP-92 > 100 µM | HT-29 > 100 µM | IGROV-1 > 100 µM | K562 > 100 µM | KM-20L2 > 100 µM | KM12 > 100 µM | M14 > 100 µM | M19-MEL > 100 µM | MOLT-4 > 100 µM | NCI-H23 > 100 µM | NCI-H460 > 100 µM | NCI-H522 > 100 µM | OVCAR-5 > 100 µM | OVCAR-8 > 100 µM | RXF 393 > 100 µM | SF-295 > 100 µM | SK-MEL-28 > 100 µM | SK-OV-3 > 100 µM | SNB-19 > 100 µM | SNB-78 > 100 µM | SR > 100 µM | TK-10 > 100 µM | U-251 > 100 µM | UACC-257 > 100 µM | UACC-62 > 100 µM | UO-31 > 100 µM
